Assay results published in patent US7662896B2, “Fluorochemical sulfonamide surfactants” (3M Innovative Properties Company, priority 1999, dated 2010).

Assays:
[1] = Surface tension in water (Test Procedure I, Kruss K12 Tensiometer); format: physicochemical; conditions: for Surface Tension (dynes/cm) at Various Surfactant Concentrations: 10 ppm: 10 ppm in water; for Surface Tension (dynes/cm) at Various Surfactant Concentrations: 100 ppm: 100 ppm in water; for Surface Tension (dynes/cm) at Various Surfactant Concentrations: 1000 ppm: 1000 ppm in water; for Surface Tension (dynes/cm) at Various Surfactant Concentrations: 20 ppm: 20 ppm in water; for Surface Tension (dynes/cm) at Various Surfactant Concentrations: 200 ppm: 200 ppm in water; for Surface Tension (dynes/cm) at Various Surfactant Concentrations: 2000 ppm: 2000 ppm in water; for Surface Tension (dynes/cm) at Various Surfactant Concentrations: 23 ppm: 23 ppm in water; for Surface Tension (dynes/cm) at Various Surfactant Concentrations: 83 ppm: 83 ppm in water; for Surface Tension (dynes/cm) at Various Surfactant Concentrations: 164 ppm: 164 ppm in water; for Surface Tension (dynes/cm) at Various Surfactant Concentrations: 273 ppm: 273 ppm in water; for Surface Tension (dynes/cm) at Various Surfactant Concentrations: 421 ppm: 421 ppm in water; for Surface Tension (dynes/cm) at Various Surfactant Concentrations: 617 ppm: 617 ppm in water; for Surface Tension (dynes/cm) at Various Surfactant Concentrations: 875 ppm: 875 ppm in water; for Surface Tension (dynes/cm) at Various Surfactant Concentrations: 1032 ppm: 1032 ppm in water
Method: Test Procedure I—Surface Tension Determination
All surface tensions were determined using a Kruss K12 Tensiometer. […] The program was run using a Wilhelmy platinum plate (PL12) and glass sample vessel (GL7).

[2] = test system: SPF-bred Sprague Dawley rats; assay: 28-day oral toxicity study by daily gavage in the rat; format: in vivo; conditions: 28 days daily oral gavage; 3 (C8), 10 (C6), 30 (C4) mg/kg body weight/day
Method: (§1) A 28-day oral toxicity study with perfluorooctanesulfonate (C8F17SO3^−) was conducted by daily gavage in the rat followed by 14 and 28 day recovery periods. The dose levels for the study were selected to be 0 mg/kg body weight/day for species control, and 3 mg/kg body weight/day for potassium perfluorooctanesulfonate. The potassium perfluorooctanesulfonate was formulated in 1% aqueous carboxymethyl cellulose and administered daily for 28 days by oral gavage to SPF-bred Sprague Dawley rats. A vehicle control group and a treated group were tested, each consisting of 8 male and 8 female rats. An extra 3 rats per sex per group were allowed 14 days of recovery, and another 3 rats per sex per group were allowed 28 days of recovery.

[3] = Amount of perfluoroalkylsulfonate in male rat liver tissue (HPLC/ESMS/MS); format: in vivo; conditions: for Amount (ppm) of Sulfonate Day 1N* / Amount (ppm) of Sulfonate Day 1 / Amount (ppm) of Sulfonate Day 14N* / Amount (ppm) of Sulfonate Day 14 / Amount (ppm) of Sulfonate Day 28N* / Amount (ppm) of Sulfonate Day 28: male rat liver; for Amount (ppm) of Sulfonate Day 1N*: normalized to a feeding level of 3 mg/kg body weight per day; for Amount (ppm) of Sulfonate Day 1: day 1 after 28 day dosing at 3 (C8), 10 (C6), 30 (C4) mg/kg/day; for Amount (ppm) of Sulfonate Day 14N* / Amount (ppm) of Sulfonate Day 28N*: normalized to 3 mg/kg body weight per day; for Amount (ppm) of Sulfonate Day 14: day 14 of recovery; for Amount (ppm) of Sulfonate Day 28: day 28 of recovery
Method: as §1
Extracted liver tissue samples from the sacrificed rats of the study were homogenized and extracted using an ion-pairing extraction procedure. The extracts were quantitatively analyzed using high-pressure liquid chromatography/electrospray tandem mass spectroscopy (HPLC/ESMS/MS) and evaluated.

[4] = as above; format: in vivo; conditions: for Elimination from the body (in words): rat, tested as potassium salt
[5] = Dynamic surface tension of water (Kruss Bubble Pressure Tensiometer BP2); format: physicochemical; conditions: 0.5 weight % in water; for Dynamic Surface Tension (mN/m) at Indicated Bubble Frequency (Hz): 0.01: 0.01 Hz; for Dynamic Surface Tension (mN/m) at Indicated Bubble Frequency (Hz): 0.5: 0.5 Hz; for Dynamic Surface Tension (mN/m) at Indicated Bubble Frequency (Hz): 1.0: 1.0 Hz; for Dynamic Surface Tension (mN/m) at Indicated Bubble Frequency (Hz): 5.0: 5.0 Hz
Method: The dynamic surface tension of water containing 0.5 weight % FC-171 (C8F17SO2N(Et)(CH2CH2O)7.5CH3, for which the surface tension was measured in Comparative Example C2, was measured with a Kruss Bubble Pressure Tensiometer, Model BP2 (Kruss USA, Charlotte, N.C.). The results are shown in Table 11.

[6] = Contact angle measurement on glass cover slips (Test Procedure II); format: physicochemical
Method: Test Procedure II—Contact Angle Measurement
Glass cover slips were rinsed with HPLC water and allow to air dry. The surfactant to be tested was mixed at 0.01 weight % with HPLC water. The pH was measured and if below 9, the pH was adjust to 9 by adding several drops of 1% NH4OH. The surface tension of the surfactant solution was determined using Test Procedure I.
A clean, dry glass cover slip was placed in the clamp and lower to ˜1 mm above the surface of the surfactant/water solution. Velocity search was set at 6 mm/min and velocity measure was set at 4 mm/min. Immersion depth was at least 10 mm, depending on the size of the cover slip. Advancing and receding contact angles were measured with 3 cycles. The cover slip was allowed to dry in the clamp, above the solution, for ten minutes. Advancing and receding contact angles were measured a second time with 3 cycles.

[7] = Wetting and film characterization on glass surface (Test Procedure III); format: physicochemical
Method: Test Procedure III—Wetting and Film Characterization on Glass Surface
A solution of the surfactant to be tested was prepared at 0.01% by weight in HPLC grade water. The surfactant solution pH was measured and if necessary, pH was adjusted to 9 by adding several drops of 1% NH4OH. Glass plates were cleaned using Windex and a squeegee. Cleaned plates placed on top of 5.1 cm by 5.1 cm by 10.2 cm wood supports, which were laid out in a parallel arrangement. Two glass plates were used for each surfactant solution and laid out adjacent to each other. Surfactant solution (10 drops) was placed on each of the two plates and observed for solution hydrophilic or hydrophobic characteristics. The solution was considered hydrophilic if it was spread out and hydrophobic if it beaded up. The surfactant solutions were allowed to air dry and the resulting film on the glass plate observed for solution autophilic or autophobic properties. The solution was considered autophilic if it dried as a sheet and autophobic if it dried in separate puddles. […] On one of the plates with the dried surfactant film was placed 10 drops of the same surfactant solution on top of the area with the dry film. […] On the other plate was placed 10 drops of HPLC grade water on top of the area with the dry film, and hydrophilic or hydrophobic characteristics were observed.

[8] = 28 days following completion of feeding
[9] = 28 days following completion of feeding, normalized to the same feeding levels
[10] = immediately following completion of feeding
[11] = 0.01 weight % solution, glass with a film of dried surfactant solution
[12] = 0.01 weight % surfactant solution in HPLC water
[13] = 0.01 weight % solution air dried on glass

Compound | Observed effects in treated rats [2] | Amount (ppm) of Sulfonate Day 1N* [3] [ppm] | Amount (ppm) of Sulfonate Day 1 [3] [ppm] | Amount (ppm) of Sulfonate Day 14N* [3] [ppm] | Amount (ppm) of Sulfonate Day 14 [3] [ppm] | Amount (ppm) of Sulfonate Day 28N* [3] [ppm] | Amount (ppm) of Sulfonate Day 28 [3] [ppm] | Surface Tension (dynes/cm) at Various Surfactant Concentrations: 20 ppm [1] [dynes/cm] | Surface Tension (dynes/cm) at Various Surfactant Concentrations: 200 ppm [1] [dynes/cm] | Surface Tension (dynes/cm) at Various Surfactant Concentrations: 2000 ppm [1] [dynes/cm] | Surface Tension (dynes/cm) at Various Surfactant Concentrations: 23 ppm [1] [dynes/cm] | Surface Tension (dynes/cm) at Various Surfactant Concentrations: 83 ppm [1] [dynes/cm] | Surface Tension (dynes/cm) at Various Surfactant Concentrations: 164 ppm [1] [dynes/cm] | Surface Tension (dynes/cm) at Various Surfactant Concentrations: 273 ppm [1] [dynes/cm] | Surface Tension (dynes/cm) at Various Surfactant Concentrations: 421 ppm [1] [dynes/cm] | Surface Tension (dynes/cm) at Various Surfactant Concentrations: 617 ppm [1] [dynes/cm] | Surface Tension (dynes/cm) at Various Surfactant Concentrations: 875 ppm [1] [dynes/cm] | Surface Tension (dynes/cm) at Various Surfactant Concentrations: 1032 ppm [1] [dynes/cm] | other results
O=S(=O)([O-])C(F)(F)C(F)(F)C(F)(F)C(F)(F)F.[K+] [Example C4F9SO3K, Potassium perfluorobutanesulfonate] | No clear systematic toxicity, nor organ dysfunction at macroscopic or microscopic levels were observed | 0.31 | 3.09 ± 1.58 | 0.0126 | 0.126 ± 0.084 | 0.0025 | 0.025 ± 0.015 | – | – | – | – | – | – | – | – | – | – | – | Surface Tension (dynes/cm) at Various Surfactant Concentrations: 10 ppm [1]: 70 dynes/cm; Surface Tension (dynes/cm) at Various Surfactant Concentrations: 100 ppm [1]: 67.5 dynes/cm; Surface Tension (dynes/cm) at Various Surfactant Concentrations: 1000 ppm [1]: 53 dynes/cm; Factor lower than C6F13SO3^− in liver [4, 8]: > 1400; Factor lower than C6F13SO3^− in liver [4, 9]: 4400; Factor lower than C6F13SO3^− in liver [4, 10]: > 100; Elimination from the body (in words) [4]: unexpectedly fast and effective elimination; Elimination from the body (in words) ([4]; listed as perfluorobutylsulfonate): eliminates from the body much more effectively than perfluorohexylsulfonate and even more effectively than perfluorooctylsulfonate
CN(CC(=O)[O-])S(=O)(=O)C(F)(F)C(F)(F)C(F)(F)C(F)(F)F.[K+] [C4F9SO2N(Et)CH2CO2K, C4F9SO2N(CH3)CH2CO2K] | – | – | – | – | – | – | – | 68.5 | 57.4 | 44.4 | – | – | – | – | – | – | – | – | –
C4F9SO2N(CH3)(CH2CH2O)7.5CH3 [Example 1] | – | – | – | – | – | – | – | – | – | – | 31 | 24 | 23 | 22.5 | 22 | 21.5 | 20 | 20 | Surface tension in water compared with the C8F17 analog (in words) ([1]; water, plotted against concentration in FIGS. 3-5, 7, 8): very similar to that found when using the C8F17 segment; Dynamic Surface Tension (mN/m) at Indicated Bubble Frequency (Hz): 0.01 [5]: 21 mN/m; Dynamic Surface Tension (mN/m) at Indicated Bubble Frequency (Hz): 0.5 [5]: 22 mN/m; Dynamic Surface Tension (mN/m) at Indicated Bubble Frequency (Hz): 1.0 [5]: 22.5 mN/m; Dynamic Surface Tension (mN/m) at Indicated Bubble Frequency (Hz): 5.0 [5]: 23 mN/m
O=S(=O)([O-])C(F)(F)C(F)(F)C(F)(F)C(F)(F)C(F)(F)C(F)(F)C(F)(F)C(F)(F)F.[K+] [Example C8F17SO3K, potassium perfluorooctanesulfonate] | decreased body weight, decreased blood cholesterol, increased liver size, and hepatocyte hypertrophy | 419 | 419 ± 86 | 309 | 309 ± 34 | 237 | 237 ± 25 | – | – | – | – | – | – | – | – | – | – | – | Surface Tension (dynes/cm) at Various Surfactant Concentrations: 10 ppm [1]: 67.7 dynes/cm; Surface Tension (dynes/cm) at Various Surfactant Concentrations: 100 ppm [1]: 54.1 dynes/cm; Surface Tension (dynes/cm) at Various Surfactant Concentrations: 1000 ppm [1]: 33.1 dynes/cm
CCN(CCOCCOCCOCCOCCOCCOCCOC)S(=O)(=O)C(F)(F)C(F)(F)C(F)(F)C(F)(F)C(F)(F)C(F)(F)C(F)(F)C(F)(F)F [FC-171, C8F17SO2N(C2H5)(CH2CH2O)7CH3] | – | – | – | – | – | – | – | – | – | – | 33.5 | 21 | 20.5 | 19.5 | 19 | 19 | 19 | 19 | Dynamic Surface Tension (mN/m) at Indicated Bubble Frequency (Hz): 0.01 [5]: 51 mN/m; Dynamic Surface Tension (mN/m) at Indicated Bubble Frequency (Hz): 0.5 [5]: 67 mN/m; Dynamic Surface Tension (mN/m) at Indicated Bubble Frequency (Hz): 1.0 [5]: 70 mN/m; Dynamic Surface Tension (mN/m) at Indicated Bubble Frequency (Hz): 5.0 [5]: 71 mN/m
CN(CC(=O)[O-])S(=O)(=O)C(F)(F)C(F)(F)C(F)(F)C(F)(F)C(F)(F)C(F)(F)F.[K+] [C6F13SO2N(Et)CH2CO2K, C6F13SO2N(CH3)CH2CO2K] | – | – | – | – | – | – | – | 48.2 | 30.8 | 15.5 | – | – | – | – | – | – | – | – | –
CCN(CC(=O)[O-])S(=O)(=O)C(F)(F)C(F)(F)C(F)(F)C(F)(F)C(F)(F)C(F)(F)C(F)(F)C(F)(F)F.[K+] [FC-129, C8F17SO2N(C2H5)CH2CO2^−K^+] | – | – | – | – | – | – | – | 49 | 23 | 17 | 29.5 | 29 | 24 | 17.5 | 16 | 15.5 | 16 | 16.5 | Advancing CA on Dried Surfactant [6, 11]: 64.6 °; Receding CA on Dried Surfactant [6, 11]: 12.2 °; Advancing CA on Clean Glass [6, 12]: 61.6 °; Receding CA on Clean Glass [6, 12]: 7 °; Dried film clarity [7, 13]: clear; Dried film: autophilic or autophobic [7, 13]: autophilic; Solution on clean glass: hydrophilic or hydrophobic ([7]; 0.01 weight % solution in HPLC grade water): hydrophobic; Characteristic the dried film gave to water and to the surfactant solution ([7]; 10 drops placed on the dried film): hydrophilic
O=S(=O)(O)C(F)(F)C(F)(F)C(F)(F)C(F)(F)C(F)(F)C(F)(F)F [C6F13SO3^−, perfluorohexanesulfonate] | comparable, but less persistent than those of Comparative Example C22 | 98 | 327 ± 52 | 19 | 61.9 ± 11.7 | 11 | 36.3 ± 7.4 | – | – | – | – | – | – | – | – | – | – | – | Factor lower than C8F17SO3^− in liver [3, 8]: 6.5; Factor lower than C8F17SO3^− in liver [3, 9]: 21.5; Factor lower than C8F17SO3^− in liver [3, 10]: 1.3
